# Reference: patent publication US20060135569A1, “Use of benzisoselenazolone compounds against ischemic myocardial damage” (priority 2002, published 2006)
# Marks after values point to notes of the source that are not given here.
# How the values were obtained:
# [1] = system: arrhythmia caused by ischemia/reperfusion insults in anaesthetic rats; assay: Ischemia/reperfusion arrhythmia in anaesthetic rats, intravenous injection; type: in vivo, rat; conditions: for incidence and duration of VT, VF, VE / ventricular arrhythmic / latency of ventricular arrhythmic: 3 mg/Kg intravenous (femoral vein), rats; for Occurrence time / VE Duration time / VE Incidence (%) / VF Duration time / VF Incidence (%) / VT Duration time / VT Incidence (%): intravenously injected per table title
# Text: (1) Protective Effects of the Tested Compounds on Myocardial Insults in Rats after Intravenously Injection
# Arrhythmic potency induced by myocardial insults was used to assess the potential protective effect of the compounds.
# [2] = system: isolated rat hearts subjected to ischemia-reperfusion (I/R); assay: Isolated heart subjected to ischemia/reperfusion injury (arrhythmia); conditions: for AAT: arrhythmic occurrence time, Time / VF (ventricular fibrillation) Incidence rate (%) / VPS (ventricular premature beats) Incidence rate (%) / VT (ventricular tachycardia) Incidence rate (%): 10^−6 M, isolated heart ischemia/reperfusion
# Procedure, shortened: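 Rat hearts perfused in vitro and subjected to ischemia-reperfusion after drug exposure. Recorded endpoints: duration of ventricular arrhythmia and incidence of ventricular extrasystole and VT/VF.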
# TA100 = assay: Ames test, strain TA100; type: cell-based
# Protocol: (§1) To assess the mutagenic effects of 5 compounds (IMM-004; IMM-065; IMM-127; IMM-128; IMM-313), the Ames test was performed in 4 strains (TA97; TA98; TA100; TA102). The experiment was conducted with compounds at 4 concentration levels (0.5, 5, 50 and 500 μg/dish). […]
# KM mice = assay: Acute toxicity study in mice; type: in vivo
# Protocol: Acute toxicity studies were performed with IMM-004 and IMM-127 (synthesized by ourselves). The compound was provided as powder, which was milled and suspended in 0.5% carboxymethylcellulose sodium (CMC—Na) before use.
# Male KM mice weighting 19±2 g were housed for an adaptation before use. Mice were randomly divided into groups, and each group consists of 10 animals. Mice were all fasted for 14 hrs before the administration of the tested compounds. Activity of mice in high dose group was reduced 30 min after the administration. 24 h after the administration, mice in each group were restored to normal. Mice were observed daily for a period of 7 days after the administration.
# TA97 = assay: Ames test, strain TA97; type: cell-based
# Protocol: as §1
structure (smiles),measurement,setting,value
"O=c1c2cc(Cl)ccc2[se]n1-c1ccccn1 [IMM-004, 5-chloro-2-(2-pyridyl)-1,2-benz-isoselenazol-3(2H)-one]","incidence and duration of VT, VF, VE / ventricular arrhythmic",[1],all reduced
same,latency of ventricular arrhythmic,[1],significantly prolonged
same,Occurrence time,[1]; 10 mg/Kg,9.3 ± 10.0 s
same,VE Duration time,[1]; 10 mg/Kg,4.7 ± 12.9 s
same,VE Incidence (%),[1]; 10 mg/Kg,100%
same,VF Duration time,[1]; 10 mg/Kg,8.8 ± 7.4 s
same,VF Incidence (%),[1]; 10 mg/Kg,22.2%
same,VT Duration time,[1]; 10 mg/Kg,30.2 ± 17.6 s
same,VT Incidence (%),[1]; 10 mg/Kg,88.9%
same,Occurrence time,[1]; 30 mg/Kg,19.6 ± 24.1 s
same,VE Duration time,[1]; 30 mg/Kg,0.4 ± 1.3 s
same,VE Incidence (%),[1]; 30 mg/Kg,66.7%
same,VF Duration time,[1]; 30 mg/Kg,3.3 ± 5.7 s
same,VF Incidence (%),[1]; 30 mg/Kg,11.1* %
same,VT Duration time,[1]; 30 mg/Kg,17.0 ± 12.6 s
same,VT Incidence (%),[1]; 30 mg/Kg,44.4** %
same,Occurrence time,[1]; 100 mg/Kg,16.4 ± 25.1 s
same,VE Duration time,[1]; 100 mg/Kg,5.5 ± 10.2 s
same,VE Incidence (%),[1]; 100 mg/Kg,66.7%
same,VF Duration time,[1]; 100 mg/Kg,3.9 ± 6.8 s
same,VF Incidence (%),[1]; 100 mg/Kg,33.3%
same,VT Duration time,[1]; 100 mg/Kg,22.7 ± 19.4 s
same,VT Incidence (%),[1]; 100 mg/Kg,55.5* %
same,protective effects on myocardial insults,"[2]; 10^−6M, isolated heart",significant protective effects
same,"AAT: arrhythmic occurrence time, Time",[2],0.70 ± 0.33 min
same,VF (ventricular fibrillation) Incidence rate (%),[2],0** %
same,VPS (ventricular premature beats) Incidence rate (%),[2],37.5%
same,VT (ventricular tachycardia) Incidence rate (%),[2],37.5%
same,TA100 +S9,TA100; 0.5 μg/dish,191.33 ± 44.25
same,TA100 −S9,TA100; 0.5 μg/dish,121.00 ± 8.52
same,TA100 +S9,TA100; 5 μg/dish,215.33 ± 23.68
same,TA100 −S9,TA100; 5 μg/dish,58.33 ± 29.39
same,TA100 +S9,TA100; 50 μg/dish,126.00 ± 31.79
same,TA100 −S9,TA100; 50 μg/dish,89.67 ± 14.70
same,TA100 +S9,TA100; 500 μg/dish,160.00 ± 21.33
same,TA100 −S9,TA100; 500 μg/dish,78.33 ± 13.52
same,mortality in the dose groups,"KM mice; all dose groups, mice",no mortality
same,TA97 +S9,TA97; 0.5 μg/dish,55.33 ± 24.36
same,TA97 −S9,TA97; 0.5 μg/dish,54.33 ± 4.78
same,TA97 +S9,TA97; 5 μg/dish,80.67 ± 8.58
same,TA97 −S9,TA97; 5 μg/dish,54.67 ± 4.99
same,TA97 +S9,TA97; 50 μg/dish,204.67 ± 29.41
same,TA97 −S9,TA97; 50 μg/dish,47.00 ± 5.72
same,TA97 +S9,TA97; 500 μg/dish,67.33 ± 36.59
same,TA97 −S9,TA97; 500 μg/dish,55.50 ± 3.50
"O=c1c2cc(F)ccc2[se]n1-c1ccccn1 [IMM-127, 5-fluoro-2-(2-pyridyl)-1,2-benz-isoselenazol-3(2H)-one]","incidence and duration of VT, VF, VE / ventricular arrhythmic",[1],all reduced
same,latency of ventricular arrhythmic,[1],significantly prolonged
same,Occurrence time,[1]; 10 mg/Kg,15.5 ± 21.5 s
same,VE Duration time,[1]; 10 mg/Kg,2.5 ± 6.4 s
same,VE Incidence (%),[1]; 10 mg/Kg,100%
same,VF Duration time,[1]; 10 mg/Kg,6.6 ± 7.2 s
same,VF Incidence (%),[1]; 10 mg/Kg,22.2%
same,VT Duration time,[1]; 10 mg/Kg,32.1 ± 26.1 s
same,VT Incidence (%),[1]; 10 mg/Kg,66.7%
same,Occurrence time,[1]; 30 mg/Kg,9.6 ± 9.2 s
same,VE Duration time,[1]; 30 mg/Kg,0.2 ± 0.5 s
same,VE Incidence (%),[1]; 30 mg/Kg,100%
same,VF Duration time,[1]; 30 mg/Kg,3.2 ± 5.5 s
same,VF Incidence (%),[1]; 30 mg/Kg,11.1* %
same,VT Duration time,[1]; 30 mg/Kg,18.0 ± 11.4 s
same,VT Incidence (%),[1]; 30 mg/Kg,66.7%
same,Occurrence time,[1]; 100 mg/Kg,9.0 ± 19.7 s
same,VE Duration time,[1]; 100 mg/Kg,2.2 ± 63 s
same,VE Incidence (%),[1]; 100 mg/Kg,88.9%
same,VF Duration time,[1]; 100 mg/Kg,5.1 ± 7.8 s
same,VF Incidence (%),[1]; 100 mg/Kg,22.2%
same,VT Duration time,[1]; 100 mg/Kg,31.1 ± 21.3 s
same,VT Incidence (%),[1]; 100 mg/Kg,44.4** %
same,"AAT: arrhythmic occurrence time, Time",[2],19.72 ± 4.42 min
same,VF (ventricular fibrillation) Incidence rate (%),[2],38%
same,VPS (ventricular premature beats) Incidence rate (%),[2],50%
same,VT (ventricular tachycardia) Incidence rate (%),[2],62.5%
same,TA100 +S9,TA100; 0.5 μg/dish,95.00 ± 10.23
same,TA100 −S9,TA100; 0.5 μg/dish,83.00 ± 14.14
same,TA100 +S9,TA100; 5 μg/dish,102.67 ± 21.06
same,TA100 −S9,TA100; 5 μg/dish,62.00 ± 10.80
same,TA100 +S9,TA100; 50 μg/dish,100.00 ± 6.16
same,TA100 −S9,TA100; 50 μg/dish,67.67 ± 22.05
same,TA100 +S9,TA100; 500 μg/dish,100.67 ± 4.49
same,TA100 −S9,TA100; 500 μg/dish,72.33 ± 23.67
same,Lethal cases,"KM mice; 5 g/kg, 10 mice per group, 7 days observation",7
same,TA97 +S9,TA97; 0.5 μg/dish,60.67 ± 3.86
same,TA97 −S9,TA97; 0.5 μg/dish,60.00 ± 8.16
same,TA97 +S9,TA97; 5 μg/dish,59.67 ± 8.18
same,TA97 −S9,TA97; 5 μg/dish,56.67 ± 13.27
same,TA97 +S9,TA97; 50 μg/dish,68.50 ± 2.50
same,TA97 −S9,TA97; 50 μg/dish,60.33 ± 3.77
same,TA97 +S9,TA97; 500 μg/dish,48.00 ± 2.16
same,TA97 −S9,TA97; 500 μg/dish,57.33 ± 6.94
